This note sets out measurements from patent US6749863B1, “Targeted liposome gene delivery” (Georgetown University, priority 1997, dated 2004).

The test system of assay [1] is MDA-MB-231. Briefly: Chemosensitization, XTT cell proliferation assay. The format is cell-based. To be noted: Homo sapiens; drug alone on untransfected MDA-MB-231 cells. As for the experimental part:
(§1) This example summarizes part of the in vitro p53-mediated chemosensitization experiments (XTT assays) performed on the cell lines for which transfection with transferrin-coupled or folate-coupled liposomes is described in Example 17. […] The chemosensitization effect is dependent upon the liposome used and the p53 DNA dose. VIN=vinblastine; DXR=doxorubicin; CDDP=cisplatin. Fold Sensitization is calculated from the individual IC50 values. DNA dose=ug of DNA applied per well (approximately 1×10^4 cells/well in a 96-well plate).

The test system of assay [2] is PANC-1 xenograft tumors. Briefly: Systemic LipF-p53 plus chemotherapy, xenograft growth. The format is in vivo, athymic nude mice. To be noted: single agent only. An excerpt: Xenograft tumors of pancreatic cancer cell line PANC-1 were induced by the subcutaneous inoculation of greater than 1×10^7 cells onto athymic nude mice. When the tumors reached approximately 500-1000 mm^3, the tumors were excised and minced into small (<1 mm) pieces. These freshly prepared tumor pieces (suspended in PBS) were inoculated subcutaneously (using a 14 g needle) onto the flanks of athymic nude mice. When the tumors reached an average of 100 mm^3 in volume, treatment was begun. The animals received, via intravenous injection, LipF(B)-p53. This liposome complex was administered twice/week to a total of 7 injections. The chemotherapeutic agent gemcitabine was also administered intraperitoneally at a dose of either 60mg/kg or 120mg/kg twice weekly. A total of 13 gemcitabine injections were administered. One group of animals also received twice weekly intratumoral injections of LipF(B)-p53 (a total 6) in addition to the intravenous administration of the LipF(B)-p53 and gemcitabine. […] This was particularly evident in the group that received both i.v. and i.t injections.

For assay [3], the system named is PANC-1. Briefly: Chemosensitization, XTT cell proliferation assay. The format is cell-based. To be noted: Homo sapiens, PANC-1, drug alone on untransfected PANC-1 cells. As for the experimental part:
as §1
Here also a greater than 70 fold increase in drug sensitivity was induced by treatment with LipF(B)-AS-RAS.

Assay [4] deals with U87. Briefly: Chemosensitization, XTT cell proliferation assay. The format is cell-based. The conditions noted are these: Homo sapiens, U-87 MG, drug alone on untransfected U87 cells. As for the experimental part:
as §1
(§2) The ability of the LipF(B)-delivered AS-HER-2 to sensitize MDA-MB-435, JSQ-3, DU145 and U87 (Human glioblastoma) cells to chemotherapeutic agents was evaluated. Sensitivity was determined using the XTT cell proliferation assay. […] Comparison of the cells treated with LipF(B) mediated AS-HER-2, to that of cells treated with a LipF(B) control oligonucleotide (SC) indicated a greater than 30 fold increase in sensitization of 435 cells to taxotere. In contrast, only a 2.5 fold level of sensitization was evident after transfection with AS-HER-2 using the commercial Lipofectin (Life Technologies, Inc.). Treatment of JSQ-3 cells with LipF(E)-AS-HER-2 increased the effect of docetaxel almost 25 fold. […] A two fold increase in sensitization of DU145 cells to docetaxel was seen after treatment with LipF(E)-AS-HER-2.

The test system of assay [5] is DU145 xenograft tumors. Kind of assay: Systemic LipF-p53 plus chemotherapy, xenograft growth. It counts as in vivo, mice. To be noted: complex twice/week, 5 injections, or docetaxel 10 mg/kg, alone. On the procedure: Mice bearing subcutaneous DU145 xenograft tumors of approximately 100 mm^3 were injected, via the tail vein, with a ligand-liposome p53 complex using folate as the targeting ligand (LipF(B)-p53). This liposome complex was administered twice/week (to a total of 5 injections) along with the chemotherapeutic agent docetaxel at a dose of 10 mg/kg.

Assay [6] relates to DU145. Briefly: Chemosensitization, XTT cell proliferation assay. The format is cell-based. The conditions noted are these: Homo sapiens, DU-145, drug alone on untransfected DU145 cells. As for the experimental part:
as §1, §2

Assay [7] deals with MDA-MB-435 mammary fat pad xenograft tumors. Briefly: Chemosensitization of xenograft tumors in vivo. The conditions noted are these: AS-HER-2 only or docetaxel only. On the set-up: species or system athymic nude mice. On the procedure:
Mice bearing subcutaneous mammary fat pad MDA-MB-435 tumors of approximately 100 mm^3 were i.v. injected via the tail vein with LipF(C)-p53 every 3-4 days for a total of eight injections. Doxorubicin (Dxr) (10 mg/kg) was injected i.v. weekly for 4 weeks. […] In a second experiment, two separate liposome compositions [LipF(E) and LipF(C)] were employed.
The ability of the LipF(B)-AS-HER-2 to target and sensitize preexisting MDA-MB-435 xenograft tumors to the chemotherapeutic agent docetaxel in vivo was examined by assessing tumor regression as well as tumor growth inhibition. Female athymic (Ncr nu/nu) mice carrying MDA-MB-435 mammary fat pad xenograft tumors of approximately 70 mm^3 were intravenously injected, via the tail vein, with LipF(B)-AS-HER-2 (at approximately 0.6 mM of oligonucleotides) every other day to a total of 11 injections. A total of 11 intravenous doses of docetaxel (approximately 20 mg/kg/dose every other day) were also administered to the animals. […] Therefore, the systemically delivered, targeted liposome delivery of antisense oligonucleotides, in this case AS-HER-2, was clearly able to sensitize these tumors to the chemotherapeutic agent, strongly inhibiting tumor growth almost three weeks after the end of treatment.

Assay [8] relates to JSQ-3. Kind of assay: Chemosensitization, XTT cell proliferation assay. The conditions noted are these: Homo sapiens, drug alone on untransfected JSQ-3 cells. The format is cell-based. On the procedure:
In addition to radiation, chemotherapy is becoming more commonly used in the treatment of SCCHN. As lack of functional wtp53 has been associated with failure to respond to chemotherapy, in this example we examined the effect of ligand-facilitated liposome mediated wtp53 gene therapy on sensitization of SCCHN cell line JSQ-3 to chemotherapeutic agents. 1×10^4 cells were plated/well of a 96-well plate. 24 hours later, the cells were transfected with LipT(A)-p53. Two days after transfection, anti-neoplastic agents were added at increasing concentrations (in triplicate). 4-6 days later the XTT cell proliferation assay was performed and IC50 values, the drug concentration yielding 50% growth inhibition, calculated.
This example summarizes part of the in vitro p53-mediated chemosensitization experiments (XTT assays) performed on the cell lines for which transfection with transferrin-coupled or folate-coupled liposomes is described in Example 17. […] The chemosensitization effect is dependent upon the liposome used and the p53 DNA dose. VIN=vinblastine; DXR=doxorubicin; CDDP=cisplatin. Fold Sensitization is calculated from the individual IC50 values. […]
The ability of the LipF(B)-delivered AS-HER-2 to sensitize MDA-MB-435, JSQ-3, DU145 and U87 (Human glioblastoma) cells to chemotherapeutic agents was evaluated. Sensitivity was determined using the XTT cell proliferation assay. […]

Take `CC[C@]1(O)C[C@@H]2CN(CCc3c([nH]c4ccccc34)[C@@](C(=O)OC)(c3cc4c(cc3OC)N(C)[C@H]3[C@@](O)(C(=O)OC)[C@H](OC(C)=O)[C@]5(CC)C=CCN6CC[C@]43[C@@H]65)C2)C1` [Vln, vinblastine]: the IC50 in assay [1] was 1.81 nM.
For the molecule `Nc1ccn([C@@H]2O[C@H](CO)[C@@H](O)C2(F)F)c(=O)n1` [Gemzar, gemcitabine], the “Outcome of control groups (single treatments)” value in assay [2] is “euthanized due to tumor burden by day 54”. The IC50 in assay [3] is 800 nM; in assay [4], 1280 nM.
Take `CC(=O)O[C@@]12CO[C@@H]1C[C@H](O)[C@@]1(C)C(=O)[C@H](O)C3=C(C)[C@@H](OC(=O)[C@H](O)[C@@H](NC(=O)OC(C)(C)C)c4ccccc4)C[C@@](O)([C@@H](OC(=O)c4ccccc4)[C@H]21)C3(C)C` [Taxotere, docetaxel]: the “Tumor growth, single treatment” value is given as “neither the LipF(B)-p53 complex alone, nor docetaxel alone had any substantial effect on tumor growth” in assay [5] and “some docetaxel effect” in assay [7]. Further, the IC50 was determined as 11.5 nM in assay [3] and 42 nM in assay [6].
Regarding `CC(=O)O[C@H]1C(=O)[C@@]2(C)[C@H]([C@H](OC(=O)c3ccccc3)[C@]3(O)C[C@H](OC(=O)[C@H](O)[C@@H](NC(=O)c4ccccc4)c4ccccc4)C(C)=C1C3(C)C)[C@]1(OC(C)=O)CO[C@@H]1C[C@@H]2O` [Taxol], the results for the IC50 in assay [6], in assay [8] and in assay [1] were 13.2 nM, 15.8 nM and 52 nM, respectively.
Consider `COc1cccc2c1C(=O)c1c(O)c3c(c(O)c1C2=O)C[C@@](O)(C(=O)CO)C[C@@H]3O[C@H]1C[C@H](N)[C@H](O)[C@H](C)O1` [DXR, doxorubicin], for which, in assay [1], the IC50 worked out at 270 nM.
